Results on 16 molecules are retold here after PubChem BioAssay AID270 (DTP/NCI, 2004).

The test system of the assay is BDF1 mice, s.c. Lewis lung carcinoma, T/C %. Description: NCI In Vivo Anticancer Drug Screen. Data for tumor model Lewis Lung Carcinoma (subcutaneous) in B6D2F1 (BDF1) mice. The gist of the method:
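Antitumor effect in vivo is scored from survival or tumor burden, reported as treated relative to vehicle controls.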

[1] abbreviates: endpoint: mean tumor weight, dose: 200.0 mg/kg/injection, schedule: Q01DX011 (ip), vehicle: carboxymethylcellulose (CMC), higher = larger tumour.
[2] abbreviates: endpoint: mean tumor weight, dose: 50.0 mg/kg/injection, schedule: Q01DX011 (ip), vehicle: saline, higher = larger tumour.
The mark [3] stands for this setting: endpoint: mean tumor weight, dose: 100.0 mg/kg/injection, schedule: Q01DX011 (ip), vehicle: saline, higher = larger tumour.
The mark [4] stands for this setting: endpoint: mean tumor weight, dose: 111.0 mg/kg/injection, schedule: Q01DX011 (ip), vehicle: other, higher = larger tumour.
The mark [5] stands for this setting: endpoint: mean tumor weight, dose: 166.0 mg/kg/injection, schedule: Q01DX011 (ip), vehicle: other, higher = larger tumour.

Several values for one entry are separate records, joined by “and”; a condition that tells them apart may be missing. Equal values may be shown once. Records with an inconclusive call do not appear.

In the case of `N[C@H](C(=O)O)[C@@H]1CC(Cl)=NO1`, the T/C (endpoint: median survival time, dose: 2.5 mg/kg/injection, schedule: Q01DX005 (ip), vehicle: saline, higher = longer survival) was 92 % of control; the T/C (endpoint: median survival time, dose: 5.0 mg/kg/injection, schedule: Q01DX005 (ip), vehicle: saline, higher = longer survival) is 67 % of control; the T/C (endpoint: median survival time, dose: 10.0 mg/kg/injection, schedule: Q01DX005 (ip), vehicle: saline, higher = longer survival) is 111 % of control; the T/C (endpoint: median survival time, dose: 20.0 mg/kg/injection, schedule: Q01DX005 (ip), vehicle: saline, higher = longer survival) was 62 % of control; the T/C (endpoint: median survival time, dose: 25.9 mg/kg/injection, schedule: Q04DX002 (ip), vehicle: saline, higher = longer survival) was 114 % of control and 121 % of control; the T/C (endpoint: median survival time, dose: 43.2 mg/kg/injection, schedule: Q04DX002 (ip), vehicle: saline, higher = longer survival) is 111 % of control and 112 % of control. Besides, the T/C runs as follows: (endpoint: median survival time, dose: 72.0 mg/kg/injection, schedule: Q04DX002 (ip), vehicle: saline, higher = longer survival) 106 % of control and 107 % of control; (endpoint: median survival time, dose: 200.0 mg/kg/injection, schedule: Q04DX002 (ip), vehicle: saline, higher = longer survival) 100 % of control and 102 % of control; (endpoint: median survival time, dose: 2.5 ml/mouse/injection, schedule: Q01DX005 (ip), vehicle: saline, higher = longer survival) 92 % of control; (endpoint: median survival time, dose: 5.0 ml/mouse/injection, schedule: Q01DX005 (ip), vehicle: saline, higher = longer survival) 68 % of control; (endpoint: median survival time, dose: 10.0 ml/mouse/injection, schedule: Q01DX005 (ip), vehicle: saline, higher = longer survival) 108 % of control.
`CC1CCCCN1CCNc1ccc(CO)c2sc3ccccc3c(=O)c12` (stereo not drawn): the T/C (endpoint: median survival time, dose: 25.0 mg/kg/injection, schedule: Q01DX009 (ip), vehicle: saline with Tween-80, higher = longer survival) is 108 % of control; the T/C (endpoint: median survival time, dose: 50.0 mg/kg/injection, schedule: Q01DX009 (ip), vehicle: saline with Tween-80, higher = longer survival) was 100 % of control; the T/C (endpoint: median survival time, dose: 100.0 mg/kg/injection, schedule: Q01DX009 (ip), vehicle: saline with Tween-80, higher = longer survival) was 122 % of control.
As to `CCN(CC)CC(C)Nc1ccc(C)c2sc3ccccc3c(=O)c12` (stereo not drawn), the T/C was 104 % of control (endpoint: mean tumor weight, dose: 10.0 mg/kg/injection, schedule: Q01DX011 (ip), vehicle: other, higher = larger tumour); 68 % of control (endpoint: mean tumor weight, dose: 40.0 mg/kg/injection, schedule: Q01DX011 (ip), vehicle: other, higher = larger tumour); 30 % of control (endpoint: mean tumor weight, dose: 160.0 mg/kg/injection, schedule: Q01DX011 (ip), vehicle: other, higher = larger tumour).
For the molecule `CC(C)=CC(=O)OCC[N+](C)(C)C`, the T/C by setting is: (endpoint: median survival time, dose: 1.56 mg/kg/injection, schedule: Q01DX009 (ip), vehicle: saline, higher = longer survival) 96 % of control; (endpoint: median survival time, dose: 3.12 mg/kg/injection, schedule: Q01DX009 (ip), vehicle: saline, higher = longer survival) 103 % of control; (endpoint: median survival time, dose: 12.5 mg/kg/injection, schedule: Q01DX009 (ip), vehicle: saline, higher = longer survival) 103 % of control; (endpoint: median survival time, dose: 25.0 mg/kg/injection, schedule: Q01DX009 (ip), vehicle: saline, higher = longer survival) 113 % of control.
For the molecule `O=C(O)c1ccc(-c2ccccc2)cc1`, the T/C was 61 % of control (endpoint: mean tumor weight, dose: 60.0 mg/kg/injection, schedule: Q01DX011 (ip), vehicle: carboxymethylcellulose (CMC), higher = larger tumour); 80 % of control (endpoint: mean tumor weight, dose: 90.0 mg/kg/injection, schedule: Q01DX011 (ip), vehicle: carboxymethylcellulose (CMC), higher = larger tumour); 65 % of control (endpoint: mean tumor weight, dose: 135.0 mg/kg/injection, schedule: Q01DX011 (ip), vehicle: carboxymethylcellulose (CMC), higher = larger tumour); 33 % of control and 42 % of control under setting [1].
`C=C(C)C1CC=C(C)CC1` (stereo not drawn): the T/C is 65 % of control (endpoint: mean tumor weight, dose: 100.0 mg/kg/injection, schedule: Q01DX011 (ip), vehicle: carboxymethylcellulose (CMC), higher = larger tumour) and 43 % of control under setting [1].
Consider `CN1C(=O)C=CC1=O`, for which the T/C (endpoint: median survival time, dose: 0.5 mg/kg/injection, schedule: Q02DX009 (ip), vehicle: saline, higher = longer survival) was 113 % of control; the T/C (endpoint: median survival time, dose: 1.0 mg/kg/injection, schedule: Q02DX009 (ip), vehicle: saline, higher = longer survival) was 103 % of control; the T/C (endpoint: median survival time, dose: 2.0 mg/kg/injection, schedule: Q02DX009 (ip), vehicle: saline, higher = longer survival) is 100 % of control; the T/C (endpoint: median survival time, dose: 4.0 mg/kg/injection, schedule: Q02DX009 (ip), vehicle: saline, higher = longer survival) was 94 % of control.
On to `CCCCCC[C@@H](O)C/C=C\CCCCCCCC(=O)O`, for which the T/C by setting is: (endpoint: mean tumor weight, dose: 25.0 mg/kg/injection, schedule: Q01DX011 (ip), vehicle: saline, higher = larger tumour) 104 % of control; under setting [2], 77 % of control; under setting [3], 59 % of control.
Regarding `CC(=O)CC(=O)Nc1ccc(Cl)cc1`, the T/C was 151 % of control under setting [4]; 156 % of control under setting [5]; 121 % of control (endpoint: mean tumor weight, dose: 250.0 mg/kg/injection, schedule: Q01DX011 (ip), vehicle: other, higher = larger tumour); 64 % of control (endpoint: mean tumor weight, dose: 500.0 mg/kg/injection, schedule: Q01DX011 (ip), vehicle: other, higher = larger tumour).
Consider `CCN(CC)C(=S)S`, for which the T/C was 86 % of control (endpoint: mean tumor weight, dose: 125.0 mg/kg/injection, schedule: Q01DX011 (ip), vehicle: saline, higher = larger tumour); 123 % of control and 124 % of control (endpoint: median survival time, dose: 125.0 mg/kg/injection, schedule: Q01DX011 (ip), vehicle: saline, higher = longer survival); 112 % of control and 116 % of control (endpoint: median survival time, dose: 250.0 mg/kg/injection, schedule: Q01DX011 (ip), vehicle: saline, higher = longer survival); 104 % of control and 105 % of control (endpoint: median survival time, dose: 500.0 mg/kg/injection, schedule: Q01DX011 (ip), vehicle: saline, higher = longer survival); 102 % of control and 105 % of control (endpoint: median survival time, dose: 1000.0 mg/kg/injection, schedule: Q01DX011 (ip), vehicle: saline, higher = longer survival).
For `CCOC(=O)C1CCC(NC(=O)N(CCCl)N=O)CC1` (stereo not drawn), the T/C by setting is: (endpoint: median survival time, dose: 8.6 mg/kg/injection, schedule: Q04DX004 (ip), vehicle: gum acacia, higher = longer survival) 155 % of control; (endpoint: median survival time, dose: 13.0 mg/kg/injection, schedule: Q04DX004 (ip), vehicle: gum acacia, higher = longer survival) 155 % of control and 168 % of control and 204 % of control; (endpoint: median survival time, dose: 15.0 mg/kg/injection, schedule: Q07DX002 (ip), vehicle: gum acacia, higher = longer survival) 413 % of control; (endpoint: median survival time, dose: 18.0 mg/kg/injection, schedule: Q04DX004 (ip), vehicle: gum acacia, higher = longer survival) 176 % of control and 252 % of control; (endpoint: median survival time, dose: 20.0 mg/kg/injection, schedule: Q04DX004 (ip), vehicle: gum acacia, higher = longer survival) 181 % of control; (endpoint: median survival time, dose: 21.0 mg/kg/injection, schedule: Q07DX002 (ip), vehicle: gum acacia, higher = longer survival) 413 % of control. For the same molecule, the T/C is 191 % of control (endpoint: median survival time, dose: 22.0 mg/kg/injection, schedule: Q07DX002 (ip), vehicle: gum acacia, higher = longer survival); 232 % of control and 245 % of control (endpoint: median survival time, dose: 24.0 mg/kg/injection, schedule: Q07DX002 (ip), vehicle: gum acacia, higher = longer survival); 184 % of control (endpoint: median survival time, dose: 28.0 mg/kg/injection, schedule: Q07DX002 (ip), vehicle: gum acacia, higher = longer survival); 157 % of control and 166 % of control and 187 % of control (endpoint: median survival time, dose: 30.0 mg/kg/injection, schedule: Q01DX001 (ip), vehicle: gum acacia, higher = longer survival); 70 % of control (endpoint: median survival time, dose: 30.0 mg/kg/injection, schedule: Q04DX004 (ip), vehicle: gum acacia, higher = longer survival); 88 % of control and 90 % of control (endpoint: median survival time, dose: 33.0 mg/kg/injection, schedule: Q07DX002 (ip), vehicle: gum acacia, higher = longer survival). Also, the T/C by setting is: (endpoint: median tumor weight (est.), dose: 15.0 mg/kg/injection, schedule: Q01DX001 (ip), vehicle: gum acacia, higher = larger tumour) 16 % of control; (endpoint: median tumor weight (est.), dose: 29.0 mg/kg/injection, schedule: Q01DX001 (ip), vehicle: gum acacia, higher = larger tumour) 8 % of control.
Regarding `CCOc1ccccc1C1N(Cc2ccc(OC)cc2)CCCN1Cc1ccc(OC)cc1`, the T/C by setting is: (endpoint: mean tumor weight, dose: 74.0 mg/kg/injection, schedule: Q01DX011 (ip), vehicle: other, higher = larger tumour) 103 % of control; under setting [4], 93 % of control; under setting [5], 93 % of control.
As to `O=c1cc(-c2ccc(O)cc2)oc2c(O)c(O)c(O)c(O)c12`, the T/C runs as follows: under setting [2], 70 % of control; under setting [3], 73 % of control; (endpoint: mean tumor weight, dose: 200.0 mg/kg/injection, schedule: Q01DX011 (ip), vehicle: saline, higher = larger tumour) 43 % of control.
Turning to `O=NN(CCCl)C(=O)Nc1ccc(I)cc1`, the T/C is 92 % of control (endpoint: median survival time, dose: 3.12 mg/kg/injection, schedule: Q01DX009 (ip), vehicle: Klucel (hydroxypropylcellulose) (HPC), higher = longer survival); 97 % of control (endpoint: median survival time, dose: 6.25 mg/kg/injection, schedule: Q01DX009 (ip), vehicle: Klucel (hydroxypropylcellulose) (HPC), higher = longer survival); 101 % of control (endpoint: median survival time, dose: 12.5 mg/kg/injection, schedule: Q01DX009 (ip), vehicle: Klucel (hydroxypropylcellulose) (HPC), higher = longer survival); 108 % of control (endpoint: median survival time, dose: 50.0 mg/kg/injection, schedule: Q01DX009 (ip), vehicle: Klucel (hydroxypropylcellulose) (HPC), higher = longer survival).
As to `O=P(O)(NCCCl)NCCCl`, the T/C reads like this: (endpoint: median survival time, dose: 12.5 mg/kg/injection, schedule: Q01DX001 (ip), vehicle: saline, higher = longer survival) 114 % of control and 115 % of control; (endpoint: median survival time, dose: 25.0 mg/kg/injection, schedule: Q01DX001 (ip), vehicle: saline, higher = longer survival) 113 % of control and 114 % of control; (endpoint: median survival time, dose: 100.0 mg/kg/injection, schedule: Q01DX001 (ip), vehicle: saline, higher = longer survival) 200 % of control and 243 % of control.
As to `[I][Hg][CH2]C1COCC([CH2][Hg][I])O1.[I][Hg][CH2]C1COCC([CH2][Hg][I])O1` (stereo not drawn), the T/C by setting is: (endpoint: mean tumor weight, dose: 19.0 mg/kg/injection, schedule: Q01DX011 (ip), vehicle: other, higher = larger tumour) 80 % of control; (endpoint: mean tumor weight, dose: 29.0 mg/kg/injection, schedule: Q01DX011 (ip), vehicle: other, higher = larger tumour) 57 % of control; (endpoint: mean tumor weight, dose: 66.0 mg/kg/injection, schedule: Q01DX011 (ip), vehicle: other, higher = larger tumour) 36 % of control.
